Results reported in patent publication US8431525B2, “Coelenteramide analogs” (JNC Corporation, priority 2009, dated 2013).

Assays:
[1] = Fluorescence spectrum and fluorescence quantum yield of CTMD analogs at 750 nM (Example 1); format: physicochemical; details: for fluorescence spectrum detected / λmax (MeOH)/nm / Fluorescence quantum yield (MeOH): 750 nM; for fluorescence properties compared with known CTMD (c-4) or h-CTMD (c-13): from TABLE 1; for λmax (PB)/nm / λmax (MeOH)/nm: fluorescence emission; for λmax (MeOH)/nm / Fluorescence quantum yield (MeOH): methanol
Experimental: (§1) The fluorescence quantum yield of each CTMD analog synthesized was determined by the following procedure. The fluorescence spectrum was measured at 25° C. using a spectrofluorometer FP-6500 of JASCO (JASCO Corp., Tokyo). Specifically, the CTMD analog was dissolved in methanol (MeOH) or in 67 mM phosphate buffer (PB) (pH 7.4) at a final concentration of 750 nM using a quartz cell (light path length of 10 mm). Measurement was performed 3 times at the excited wavelength of 330 nm, emission/excitation band width of 3 nm, response of 0.5 second and scanning rate of 100 nm/min. The average was taken as the fluorescence spectrum of the compound. The fluorescence quantum yield was determined after the spectrum was corrected.
Quinine sulfate was used as a standard for determining the fluorescence quantum yield. After quinine sulfate (Wako Pure Chemical Industries) was dissolved in 0.1N sulfuric acid aqueous solution, measurement was performed at the excitation light of 366 nm under the conditions for fluorescence measurements described above. The relative fluorescence quantum yield (fluorescence intensity) of the compound was calculated relative to the quantum yield of quinine sulfate as being 0.55.

[2] = 0.1N H2SO4, ex. 366 nm; value taken as reference; cited from earlier work
[3] = Fluorescence spectra at a final concentration of 30 μM (Example 2); format: physicochemical; details: excited at 330 nm; for Fluorescence Intensity (MeOH) / λmax (MeOH)/nm: methanol, 30 μM; for Fluorescence Intensity (PB) / λmax (PB)/nm: phosphate buffer pH 7.4, 30 μM
Experimental: as §1
(§2) The fluorescence quantum yield determined in EXAMPLE 1 was estimated by measuring the fluorescence spectra when the final concentration of coelenteramide analogs was 750 nM. When the final concentration was 750 nM as in EXAMPLE 1, any fluorescence spectrum was not detected for c-14, c-31 and c-36 both in methanol and in a phosphate buffer, and not detected for c-25 in a phosphate buffer, in coelenteramide analogs of the present invention (n.d.: not detected). With respect to c-14, c-31, c-25 and c-36 that no fluorescence spectrum was detected, fluorescence spectra were measured under the same conditions as in EXAMPLE 1 except that the final concentration of these coelenteramide analogs was 30 μM. In a similar method, the fluorescence spectrum for C-4 was also measured at a final concentration of 30 μM. The fluorescence spectrum also for […] was measured in 50 mM Tris-HCl (pH 7.6) containing 10 mM CaCl2 under the same conditions as in EXAMPLE 1 except that the final concentration was 18 μM.

[4] = Fluorescence spectrum in 50 mM Tris-HCl (pH 7.6) containing 10 mM CaCl2 at 18 μM; format: physicochemical; details: 10 mM CaCl2, 18 μM
Experimental: as §2
The fluorescence spectrum of c-38 was measured at 25° C. using a JASCO spectrofluorometer FP-6500 (JASCO Corp., Tokyo). Specifically, c-38 was dissolved in 50 mM Tris-HCl (pH 7.6) containing 10 mM CaCl2 at a final concentration of 18 μM using a quartz cell (light path length of 10 mm). […] The average was taken as the fluorescence spectrum.

[5] = both in methanol and in a phosphate buffer
[6] = 67 mM phosphate buffer pH 7.4, 750 nM, 25° C., excited at 330 nm
[7] = 25° C., excited at 330 nm, relative to quinine sulfate 0.55

SMILES | fluorescence spectrum detected [1, 5] | fluorescence properties compared with known CTMD (c-4) or h-CTMD (c-13) [1] | Fluorescence Intensity (MeOH) [3] | λmax (MeOH)/nm [3] [nm] | Fluorescence Intensity (PB) [3] | λmax (PB)/nm [3] [nm] | melting point | further results
C=C[C@H]1CN2CC[C@H]1C[C@H]2[C@H](O)c1ccnc2ccc(OC)cc12.C=C[C@H]1CN2CC[C@H]1C[C@H]2[C@H](O)c1ccnc2ccc(OC)cc12.O=S(=O)(O)O [quinine, quinine sulfate, reference compound] | – | – | – | – | – | – | – | λmax of the standard ([1]; 0.1N H2SO4, ex. 366 nm): 451 nm; Fluorescence quantum yield of the standard [2]: 0.55
Oc1ccc(-c2cnc(NC(=S)Cc3ccccc3)c(Cc3ccccc3)n2)cc1 [c-14, 3-Benzyl-5-(4-hydroxyphenyl)-2-(phenylthioacetylamino)pyrazine] | not detected | different fluorescence properties | 6.5 | 428.0 | 1.4 | 435.5 | 195 to 198 °C | –
O=C(Cc1ccc(O)cc1)Nc1ncc(-c2ccc(O)cc2)nc1Cc1ccccc1 [c-4, 3-benzyl-5-(4-hydroxyphenyl)-2-[(4-hydroxyphenyl)acetylamino]pyrazine, reference compound] | – | – | 80.0 | 428.0 | 1.7 | 444.5 | – | Fluorescence quantum yield (PB) ([1]; 67 mM phosphate buffer pH 7.4, 750 nM, 25° C., excited at 330 nm, relative to quinine sulfate 0.55): 0.001; λmax (PB)/nm [1, 6]: 451 nm; λmax (MeOH)/nm ([1]; 25° C., excited at 330 nm): 427.5 nm; Fluorescence quantum yield (MeOH) [1, 7]: 0.012
CC(=O)Oc1ccc(-c2cnc(NC(=S)Cc3ccccc3)c(Cc3ccccc3)n2)cc1 [c-31, 5-(4-Acetoxyphenyl)-3-benzyl-2-(phenylthioacetylamino)pyrazine] | not detected | different fluorescence properties | 5.2 | 422.0 | 1.7 | 413.5 | 143 to 145 °C | –

Second part, led by results:

fluorescence spectrum detected [1, 5] | fluorescence properties compared with known CTMD (c-4) or h-CTMD (c-13) [1] | Fluorescence Intensity (MeOH) [3] | λmax (MeOH)/nm [3] [nm] | Fluorescence Intensity (PB) [3] | λmax (PB)/nm [3] [nm] | melting point | SMILES | further results
not detected | different fluorescence properties | 3.6 | 433.0 | 0.8 | 433.5 | 176 to 177.5 °C (dec.) | O=[N+]([O-])c1ccc(S(=O)(=O)Nc2ncc(-c3ccc(O)cc3)nc2Cc2ccccc2)cc1 [c-36, 3-Benzyl-5-(4-hydroxyphenyl)-2-[(4-nitrophenyl)sulfonylamino]pyrazine] | –
– | – | – | – | – | – | 194.5 to 196.5 °C | O=S(=O)(Cc1ccc(O)cc1)Nc1ncc(-c2ccc(O)cc2)nc1Cc1ccccc1 [c-38, 3-Benzyl-2-(4-hydroxybenzyl)sulfonylamino-5-(4-hydroxyphenyl)pyrazine] | fluorescence capacity ([4]; excited at 330 nm, FIG. 4): has the fluorescence capacity
– | – | – | – | – | – | 101 to 103 °C | Oc1ccc(CC(=S)Nc2ncc(-c3ccc(O)cc3)nc2Cc2ccccc2)cc1 [c-45, 3-Benzyl-5-(4-hydroxyphenyl)-2-[(4-hydroxyphenyl)thioacetylamino]pyrazine] | fluorescence ability in an aqueous solution [4]: had the fluorescence ability
– | – | – | – | 2.0 | 446.0 | – | CC(=O)Nc1ncc(-c2ccc(O)cc2)nc1Cc1ccccc1 [c-25, 2-Acetylamino-3-benzyl-5-(4-hydroxyphenyl)pyrazine] | fluorescence spectrum detected ([1]; in a phosphate buffer): not detected; λmax (PB)/nm [1, 6]: 446.5 nm; λmax (MeOH)/nm ([1]; 25° C., excited at 330 nm): 425.5 nm; Fluorescence quantum yield (MeOH) [1, 7]: 0.009
